In paper PMC6469291, “2-Nitroimidazole-Furanoside Derivatives for Hypoxia Imaging—Investigation of Nucleoside Transporter Interaction, ^18F-Labeling and Preclinical PET Imaging” (Pharmaceuticals, 2019):
Where two headings read alike, the source gives them in different places.

Legend:
[1] = molecular target: T1, hCNT3 (SLC28A3) (Homo sapiens, UniProt Q9HAS3); assay: Inhibition of [^3H]uridine uptake in yeast cells producing recombinant hCNT3; format: cell-based
T1 construct: expressed in transfected cells; host or cells: Saccharomyces cerevisiae
T1 sequence (Q9HAS3 1-691): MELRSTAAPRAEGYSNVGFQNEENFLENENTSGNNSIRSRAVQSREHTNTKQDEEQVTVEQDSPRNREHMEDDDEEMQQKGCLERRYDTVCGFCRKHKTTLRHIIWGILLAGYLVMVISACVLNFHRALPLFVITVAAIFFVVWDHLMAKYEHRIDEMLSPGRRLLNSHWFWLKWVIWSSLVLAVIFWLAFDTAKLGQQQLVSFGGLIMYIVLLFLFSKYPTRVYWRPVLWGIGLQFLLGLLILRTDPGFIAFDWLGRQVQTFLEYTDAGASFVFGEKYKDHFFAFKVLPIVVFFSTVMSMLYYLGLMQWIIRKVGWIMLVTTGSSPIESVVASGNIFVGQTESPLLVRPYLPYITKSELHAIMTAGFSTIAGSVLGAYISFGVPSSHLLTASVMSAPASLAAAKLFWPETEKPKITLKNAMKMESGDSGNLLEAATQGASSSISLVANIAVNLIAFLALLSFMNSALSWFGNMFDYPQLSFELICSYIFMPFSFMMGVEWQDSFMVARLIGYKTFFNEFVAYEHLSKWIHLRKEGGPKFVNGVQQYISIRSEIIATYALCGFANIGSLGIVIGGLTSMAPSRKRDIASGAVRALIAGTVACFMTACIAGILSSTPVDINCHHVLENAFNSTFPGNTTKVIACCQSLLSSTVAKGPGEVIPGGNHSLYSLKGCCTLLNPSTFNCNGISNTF
Experimental: (§1) The interaction of 2-nitroimidazole sugars with nucleoside transporters was determined by ability of the 2-nitroimidazole sugars to inhibit [^3H]uridine uptake in yeast cells producing recombinant human nucleoside transporters and results expressed as IC50 values.
(§2) Saccharomyces cerevisiae yeast was separately transformed with plasmids (pYPhENT1, pYPhENT2, pYPhCNT1, pYPhCNT2, or pYPhCNT3) encoding hNTs (hENT1, hENT2, hCNT1, hCNT2, or hCNT3, respectively) as described elsewhere. Uptake of 1 µmol/L [^3H]uridine (Moravek Biochemicals) into yeast was measured as previously described using a semi-automated cell harvester (Micro96 HARVESTER; Skatron Instruments, Tranby, Norway). Yeast was incubated at room temperature with 1 µmol/L [^3H]uridine in yeast growth media (pH 7.4) in the presence or absence (uninhibited controls) of graded concentrations (0–3 mM) of test compounds. The following compounds were used for transporter experiments: FAZA, β-FAZA, α-FAZDR, β-FAZDR. Uridine self-inhibition was used to determine maximum inhibition of mediated transport. Concentration–effect curves were subjected to nonlinear regression analysis using Prism software (version 4.03; GraphPad Software Inc.) to obtain the concentration of test compound that inhibited uridine uptake by 50%, relative to that of untreated cells (IC50 values). Each IC50 value determination was conducted with nine concentrations and four replicates per concentration and experiments were repeated two to three times.

[2] = molecular target: T2, hENT2 (SLC29A2) (Homo sapiens, UniProt Q14542); assay: Inhibition of [^3H]uridine uptake in yeast cells producing recombinant hENT2; format: cell-based
T2 construct: expressed in transfected cells; host or cells: Saccharomyces cerevisiae
T2 sequence (Q14542 1-456): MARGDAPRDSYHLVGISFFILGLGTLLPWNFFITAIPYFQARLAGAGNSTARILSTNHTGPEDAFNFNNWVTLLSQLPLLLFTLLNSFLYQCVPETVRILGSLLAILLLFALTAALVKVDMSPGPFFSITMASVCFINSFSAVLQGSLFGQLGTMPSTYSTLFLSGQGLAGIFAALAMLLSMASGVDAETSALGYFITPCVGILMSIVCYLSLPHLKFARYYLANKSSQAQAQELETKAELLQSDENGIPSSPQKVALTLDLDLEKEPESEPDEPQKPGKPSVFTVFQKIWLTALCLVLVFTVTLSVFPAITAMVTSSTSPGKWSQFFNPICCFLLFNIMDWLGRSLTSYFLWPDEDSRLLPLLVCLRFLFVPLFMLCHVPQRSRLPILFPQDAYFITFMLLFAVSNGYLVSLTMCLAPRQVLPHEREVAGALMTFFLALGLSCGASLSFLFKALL
Experimental: as §1, §2

[3] = molecular target: T3, hCNT1 (SLC28A1) (Homo sapiens, UniProt O00337); assay: Inhibition of [^3H]uridine uptake in yeast cells producing recombinant hCNT1; format: cell-based
T3 construct: expressed in transfected cells; host or cells: Saccharomyces cerevisiae
T3 sequence (O00337 1-649): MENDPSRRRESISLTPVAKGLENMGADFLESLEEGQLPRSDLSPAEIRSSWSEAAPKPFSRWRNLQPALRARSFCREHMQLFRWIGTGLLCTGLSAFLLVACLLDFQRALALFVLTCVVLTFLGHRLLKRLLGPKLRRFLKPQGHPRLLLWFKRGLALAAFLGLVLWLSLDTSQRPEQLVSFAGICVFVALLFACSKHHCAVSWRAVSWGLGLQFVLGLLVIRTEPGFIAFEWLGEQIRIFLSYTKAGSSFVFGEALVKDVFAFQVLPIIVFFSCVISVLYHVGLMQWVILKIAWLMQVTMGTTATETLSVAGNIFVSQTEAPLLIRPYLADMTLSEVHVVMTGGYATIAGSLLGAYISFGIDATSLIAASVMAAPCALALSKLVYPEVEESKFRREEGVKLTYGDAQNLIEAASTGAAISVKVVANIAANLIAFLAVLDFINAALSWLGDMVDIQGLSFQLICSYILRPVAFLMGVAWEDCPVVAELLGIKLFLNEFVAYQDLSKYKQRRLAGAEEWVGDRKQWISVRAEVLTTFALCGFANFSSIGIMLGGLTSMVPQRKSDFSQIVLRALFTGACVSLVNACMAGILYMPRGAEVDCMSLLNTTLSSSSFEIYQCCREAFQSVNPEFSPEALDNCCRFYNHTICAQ
Experimental: as §1, §2

[4] = molecular target: T4, hCNT2 (SLC28A2) (Homo sapiens, UniProt O43868); assay: Inhibition of [^3H]uridine uptake in yeast cells producing recombinant hCNT2; format: cell-based
T4 construct: expressed in transfected cells; host or cells: Saccharomyces cerevisiae
T4 sequence (O43868 1-658): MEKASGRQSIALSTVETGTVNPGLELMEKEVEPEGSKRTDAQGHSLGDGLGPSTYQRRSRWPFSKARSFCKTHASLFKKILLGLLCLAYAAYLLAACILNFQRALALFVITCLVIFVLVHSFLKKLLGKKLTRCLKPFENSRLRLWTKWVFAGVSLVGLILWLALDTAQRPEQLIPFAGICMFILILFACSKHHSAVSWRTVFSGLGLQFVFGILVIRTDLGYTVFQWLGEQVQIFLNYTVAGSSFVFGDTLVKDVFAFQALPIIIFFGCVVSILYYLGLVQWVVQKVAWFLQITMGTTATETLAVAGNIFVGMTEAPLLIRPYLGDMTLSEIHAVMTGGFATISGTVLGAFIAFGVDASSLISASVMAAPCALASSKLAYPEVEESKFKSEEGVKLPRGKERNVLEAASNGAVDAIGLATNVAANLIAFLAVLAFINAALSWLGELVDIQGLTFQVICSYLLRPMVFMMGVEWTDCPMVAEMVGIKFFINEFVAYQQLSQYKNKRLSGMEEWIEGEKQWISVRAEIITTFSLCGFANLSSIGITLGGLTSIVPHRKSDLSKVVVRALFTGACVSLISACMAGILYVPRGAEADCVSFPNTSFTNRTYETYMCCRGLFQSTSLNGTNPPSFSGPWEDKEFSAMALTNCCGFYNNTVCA
Experimental: as §1, §2

[5] = molecular target: T5, hENT1 (SLC29A1) (Homo sapiens, UniProt Q99808); assay: Inhibition of [^3H]uridine uptake in yeast cells producing recombinant hENT1; format: cell-based
T5 construct: expressed in transfected cells; host or cells: Saccharomyces cerevisiae
T5 sequence (Q99808 1-456): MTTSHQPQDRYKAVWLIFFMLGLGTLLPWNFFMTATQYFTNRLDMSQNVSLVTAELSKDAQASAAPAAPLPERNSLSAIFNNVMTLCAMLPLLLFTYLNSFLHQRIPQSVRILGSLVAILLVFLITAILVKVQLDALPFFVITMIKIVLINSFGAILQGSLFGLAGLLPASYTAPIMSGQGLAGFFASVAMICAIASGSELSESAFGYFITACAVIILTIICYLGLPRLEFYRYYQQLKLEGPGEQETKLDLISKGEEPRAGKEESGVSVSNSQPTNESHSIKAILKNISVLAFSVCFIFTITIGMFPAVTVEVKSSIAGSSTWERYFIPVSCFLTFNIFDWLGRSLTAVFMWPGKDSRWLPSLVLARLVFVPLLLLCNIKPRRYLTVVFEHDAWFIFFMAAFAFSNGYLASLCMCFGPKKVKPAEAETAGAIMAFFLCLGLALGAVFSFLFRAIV
Experimental: as §1, §2

[6] = system: CT26 colon carcinoma; assay: PET hypoxia imaging of CT26 colon carcinoma bearing mice; format: in vivo, BALB/c mice; details: for tumor uptake: hypoxic CT26 tumor tissue; for tumor uptake / muscle uptake: PET; for tumor-to-muscle ratio (TMR): i.v., CT26 tumor vs. shoulder muscle, mean ± SD; for muscle uptake: normoxic muscle tissue
Experimental: The above-described CT26 mouse colon carcinoma cells were subcutaneously inoculated in the right shoulder of female BALB/c mice (1 × 10^6 cells in phosphate-buffered saline, PBS). Subsequently, the carcinomas were allowed to grow for a period of 13 days, reaching approximately 0.3 cm3. […] All animal experiments were conducted according to guidelines for the use and care of laboratory research animals under the German Animal Protection Law, and approved by local authorities (Regierungspräsidium Tübingen). […] All experiments were done using medical air as carrier gas for isoflurane anesthesia (1.5% isoflurane during PET scans, flow rate 0.4 L/min), including tracer injections, with a specialized vaporizer ([…], Louisville, KY, USA). Subsequent to the tracer injections, the animals were allowed to freely move in their home cages for an uptake period of 55 min, thus, breathing room air. […] PET scans were performed with a Siemens Inveon dedicated PET (DPET, Siemens Healthcare, Knoxville, TN, USA). PET scans were then reconstructed with a two-dimensional ordered subset expectation maximization algorithm (OSEM2D with 16 subsets and 4 iterations). Image zoom was set to 1 and matrix size to 128 × 128 yielding a final PET image spatial resolution of 0.79 × 0.79 × 0.80 mm3. PET data were manually corrected for radioactive decay of ^18F. PET image analysis was performed using the PMOD 3.2_base 64 image viewing tool (PMOD Technologies, Zürich, Switzerland). […] Finally, PET data were expressed as percent injected dose per cubic-centimeter (%ID/cc) or tumor-to-muscle ratio (TMR).

[7] = inhibition of 1 µmol/L [^3H]uridine transport, yeast, 0–3 mM test compound, mean ± SE, n = 2–3, NI = no interaction

| SMILES | IC50 [1] [µM] | IC50 [3] [µM] | IC50 [4] [µM] | tumor uptake ([6]; 1 h p.i.) [%ID/cc] | tumor-to-muscle ratio (TMR) ([6]; 1 h p.i.) | muscle uptake ([6]; 1 h p.i.) [%ID/cc] | muscle clearance ([6]; 2 h p.i. relative to 1 h p.i.) [%] | tumor clearance ([6]; 2 h p.i. relative to 1 h p.i.) [%] | clearance ratio for tumor relative to muscle tissue ([6]; 3 h p.i.) | muscle clearance ([6]; 3 h p.i. relative to 1 h p.i.) [%] | tumor clearance ([6]; 3 h p.i. relative to 1 h p.i.) [%] | tumor uptake ([6]; 3 h p.i.) [%ID/cc] | muscle uptake ([6]; 3 h p.i.) [%ID/cc] | IC50 [2] [µM] | other results |
| --- | --- | --- | --- | --- | --- | --- | --- | --- | --- | --- | --- | --- | --- | --- | --- |
| O=[N+]([O-])c1nccn1[C@H]1O[C@H](CF)[C@@H](O)[C@@H]1O [FAZA, 1-(5′-deoxy-5′-fluoro-α-D-arabinofuranosyl)-2-nitroimidazole] | 1380 ± 100 | 290 ± 44 | 640 ± 10 | – | – | – | – | – | – | – | – | – | – | – | IC50 [2, 7]: > 3000 µM; IC50 hENT2 (SLC29A2) [2, 7]: no interaction; IC50 [5, 7]: > 3000 µM; IC50 hENT1 (SLC29A1) [5, 7]: no interaction |
| O=[N+]([O-])c1nccn1CC(O)C[18F] (centres unmarked) [[^18F]FMISO, reference compound] | – | – | – | 2.49 ± 0.88 | 1.37 ± 0.11 | 1.81 ± 0.58 | 37.2 ± 4.3 | 11.8 ± 6.5 | 0.45 ± 0.17 | 58.6 ± 3.3 | 26.9 ± 10.1 | – | – | – | – |
| O=[N+]([O-])c1nccn1[C@@H]1C[C@H](O)[C@@H](C[18F])O1 [α-[^18F]FAZDR, 1′-α-[2′,5′-dideoxy-5′-[^18F]fluoro-D-ribofuranosyl]-2-nitroimidazole] | – | – | – | 1.90 ± 0.48 | 1.93 ± 0.39 | 1.01 ± 0.32 | 53.3 ± 8.3 | 34.2 ± 7.5 | 0.79 ± 0.12 | 70.3 ± 5.5 | 55.3 ± 8.3 | 0.88 ± 0.42 | 0.31 ± 0.15 | – | – |
| O=[N+]([O-])c1nccn1[C@H]1C[C@H](O)[C@@H](C[18F])O1 [β-[^18F]FAZDR, [^18F]fluoro-azomycin-β-deoxyriboside] | – | – | – | 0.40 ± 0.07 | 2.52 ± 0.94 | 0.17 ± 0.03 | 58.4 ± 8.2 | 56.6 ± 6.8 | 0.95 ± 0.02 | 75.3 ± 6.4 | 71.5 ± 7.0 | 0.12 ± 0.05 | 0.04 ± 0.01 | – | tumor uptake ([6]; 2 h p.i.): 0.18 ± 0.06 %ID/cc; tumor-to-muscle ratio (TMR) ([6]; 2 h p.i.): 2.65 ± 0.87; muscle uptake ([6]; 2 h p.i.): 0.07 ± 0.01 %ID/cc; tumor-to-muscle ratio (TMR) ([6]; 3 h p.i.): 2.91 ± 1.01 |
| O=[N+]([O-])c1nccn1[C@@H]1O[C@H](CF)[C@@H](O)[C@@H]1O [β-FAZA, 1-(5′-Deoxy-5′-fluoro-β-D-arabinofuranosyl)-2-nitroimidazole] | 2310 ± 352 | > 3000 | > 3000 | – | – | – | – | – | – | – | – | – | – | > 3000 | IC50 [5]: 2070 ± 50 µM |
| O=[N+]([O-])c1nccn1C1CC(O)C(CF)O1 (stereo not drawn) [β-FAZDR] | 124 ± 33 | 269 ± 4 | – | – | – | – | – | – | – | – | – | – | – | > 3000 | – |
